What is called IC50 is the concentration needed to halve the response being measured.

The target of this assay is T1, CDK8 (CDK8/CycC) (Homo sapiens, UniProt P49336).
T1 construct: purchased Invitrogen PV4402
Nature of the assay: FRET based Lanthascreen binding competition assay. To be noted: 5 nM CDK8/CycC, 10 nM Alexa647-Tracer, 1% DMSO, 60 min at RT; read-out: IC50 CDK8 binding. The method, boiled down:
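CDK8 co-expressed with CycC and labelled through biotinylated anti-His antibody and streptavidin-Eu was preincubated with compound for 20 min at RT. An Alexa647 ATP-competitive probe was then added for 60 min at RT in the dark. Probe displacement was read as loss of TR-FRET (excitation 340 nm, emission 650 nm).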
(In TR-FRET formats the signal depends on donor and acceptor labels being close together.)

T1 sequence (P49336 whole entry): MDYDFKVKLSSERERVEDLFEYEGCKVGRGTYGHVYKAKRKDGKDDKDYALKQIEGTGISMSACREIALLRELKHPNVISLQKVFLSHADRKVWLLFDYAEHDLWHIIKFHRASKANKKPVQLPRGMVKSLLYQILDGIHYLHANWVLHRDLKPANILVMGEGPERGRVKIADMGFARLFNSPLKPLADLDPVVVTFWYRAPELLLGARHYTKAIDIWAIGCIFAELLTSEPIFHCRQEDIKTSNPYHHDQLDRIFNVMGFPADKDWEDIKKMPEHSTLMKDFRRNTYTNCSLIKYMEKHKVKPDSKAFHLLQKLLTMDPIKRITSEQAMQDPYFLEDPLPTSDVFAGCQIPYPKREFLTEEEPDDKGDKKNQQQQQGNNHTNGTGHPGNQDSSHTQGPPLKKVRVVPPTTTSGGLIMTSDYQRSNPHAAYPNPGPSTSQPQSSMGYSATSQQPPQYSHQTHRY
T1 sequence (P24863 whole entry partner): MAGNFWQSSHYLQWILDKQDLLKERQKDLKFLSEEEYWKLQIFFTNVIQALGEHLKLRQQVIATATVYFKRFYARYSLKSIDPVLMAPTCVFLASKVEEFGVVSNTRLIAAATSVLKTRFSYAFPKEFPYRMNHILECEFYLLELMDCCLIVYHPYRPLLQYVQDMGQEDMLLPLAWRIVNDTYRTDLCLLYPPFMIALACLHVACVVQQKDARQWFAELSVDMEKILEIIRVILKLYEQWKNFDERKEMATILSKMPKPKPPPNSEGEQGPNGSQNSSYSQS

Turning to `Cn1cc(-c2ccc(-c3cncc4ccc(N5CCNC(=O)C5)cc34)cc2)cn1` [Compound 116, 4-{4-[4-(1-Methyl-1H-pyrazol-4-yl)-phenyl]-isoquinolin-6-yl}-piperazin-2-one], the IC50 fell in the range of 0.01 to 0.1 µM. In the case of `Cn1cc(-c2ccc(-c3cncc4ccc(C(=O)N5CCC(F)(F)CC5)nc34)cc2)cn1` [Compound 35, (4,4-difluoropiperidin-1-yl)(8-(4-(1-methyl-1H-pyrazol-4-yl)phenyl)-1,6-naphthyridin-2-yl)methanone] it was under 0.01 µM; in that of `Cn1cc(-c2ccc(-c3cncc4ccc(NS(C)(=O)=O)nc34)cc2)cn1` [Compound 2, N-(8-(4-(1-Methyl-1H-pyrazol-4-yl)phenyl)-1,6-naphthyridin-2-yl)methanesulfonamide], under 0.01 µM. With `CN1C(=O)Cc2cc(-c3cncc4ccc(C(=O)N5CC(F)(F)C5)cc34)ccc21` [Compound 170, 5-[6-(3,3-Difluoro-azetidine-1-carbonyl)-isoquinolin-4-yl]-1-methyl-1,3-dihydro-indol-2-one], the IC50 was in the range of 0.01 to 0.1 µM.

Take `CN1c2ccc(-c3cncc4ccc(C(=O)N5CCNCC5)nc34)cc2CS1(=O)=O` [Compound 18, [8-(1-Methyl-2,2-dioxo-2,3-dihydro-1H-benzo[c]isothiazol-5-yl)-[1,6]naphthyridin-2-yl]-piperazin-1-yl-methanone]: the concentration for half-maximal inhibition (IC50) was under 0.01 µM. Take `C[C@H](NC(=O)c1ccc2cncc(Br)c2n1)c1ccccc1` [Compound 70, (S)-8-bromo-N-(1-phenylethyl)-1,6-naphthyridine-2-carboxamide]: the IC50 lay in the range of 0.101 to 0.5 µM. Regarding `CC(=O)NC(=O)c1ccc2cncc(-c3ccc(-c4cnn(C)c4)cc3)c2n1` [Compound 9, 8-[4-(1-Methyl-1H-pyrazol-4-yl)-phenyl]-[1,6]naphthyridine-2-carboxylic acid acetyl-amide], the IC50 is under 0.01 µM.

As to `Cc1nc(-c2ccc(-c3cncc4ccc(C(=O)N5CC(F)(F)C5)cc34)cc2)cn1C` [Compound 175, (3,3-Difluoro-azetidin-1-yl)-{4-[4-(1,2-dimethyl-1H-imidazol-4-yl)-phenyl]-isoquinolin-6-yl}-methanone], the IC50 was in the range of 0.01 to 0.1 µM. On to `Cc1cncc2ccc(C(=O)N3CCC[C@H]3c3ccc(Br)cc3)nc12` [Compound 92, (S)-(2-(4-bromophenyl)pyrrolidin-1-yl)(8-methyl-1,6-naphthyridin-2-yl)methanone], for which the IC50 was under 0.01 µM. On to `N#Cc1ccc2cncc(-c3ccc4c(c3)NC(=O)C4)c2c1` [Compound 148, 4-(2-oxoindolin-6-yl)isoquinoline-6-carbonitrile], for which the IC50 was in the range of 0.01 to 0.1 µM.

Consider `CN(O)C(=O)c1ccc2cncc(-c3ccc(-c4cnn(C)c4)cc3)c2n1` [Compound 76, N-Hydroxy-N-methyl-8-(4-(1-methyl-1H-pyrazol-4-yl)phenyl)-1,6-naphthyridine-2-carboxamide], for which the IC50 is under 0.01 µM.

For `Cn1cc(-c2ccc(-c3cncc4ccccc34)cc2)cn1` [Compound 109, 4-(4-(1-methyl-1H-pyrazol-4-yl)phenyl)isoquinoline], the IC50 lay in the range of 0.01 to 0.1 µM. In the case of `Cn1cc(-c2ccc(-c3cncc4ccc(C(=O)N5CCC[C@H]5c5ccc(Cl)cc5)nc34)cc2)cn1` [Compound 67, (S)-(2-(4-chlorophenyl)pyrrolidin-1-yl)(8-(4-(1-methyl-1H-pyrazol-4-yl)phenyl)-1,6-naphthyridin-2-yl)methanone], the IC50 fell in the range of 0.101 to 0.5 µM. For `CN1c2ccc(-c3cncc4ccc(N5CCCC5=O)cc34)cc2CS1(=O)=O` [Compound 129, 1-(4-(1-Methyl-2,2-dioxido-1,3-dihydrobenzo[c]isothiazol-5-yl)isoquinolin-6-yl)pyrrolidin-2-one], the IC50 lay in the range of 0.01 to 0.1 µM. Consider `Cn1cc(-c2ccc(-c3cncc4ccc(NS(=O)(=O)c5ccccc5)cc34)cc2)cn1` [Compound 152, N-{4-[4-(1-Methyl-1H-pyrazol-4-yl)-phenyl]-isoquinolin-6-yl}-benzenesulfonamide], for which the IC50 is under 0.01 µM. The value for `O=C1Cc2ccc(-c3cncc4ccc(C(=O)N5CCC5)cc34)cc2N1` [Compound 145, 6-(6-(azetidine-1-carbonyl)isoquinolin-4-yl)indolin-2-one] was under 0.01 µM. The value for `Cn1cc(-c2ccc(-c3cncc4ccc(N5CCCC5=O)cc34)cc2)cn1` [Compound 128, 1-(4-(4-(1-Methyl-1H-pyrazol-4-yl)phenyl)isoquinolin-6-yl)pyrrolidin-2-one] was 0.01 to 0.1 µM. In the case of `COC1CN(C(=O)c2ccc3cncc(-c4ccc5c(c4)N(C)C(=O)C5)c3c2)C1` [Compound 165, 6-[6-(3-Methoxy-azetidine-1-carbonyl)-isoquinolin-4-yl]-1-methyl-1,3-dihydro-indol-2-one] it was under 0.01 µM.

For the compound `Cn1cc(-c2ccc(-c3cncc4ccc(NS(=O)(=O)N5CCC5)cc34)cc2)cn1` [Compound 169, Azetidine-1-sulfonic acid {4-[4-(1-methyl-1H-pyrazol-4-yl)-phenyl]-isoquinolin-6-yl}-amide], the IC50 is under 0.01 µM. In the case of `COC1CN(C(=O)c2ccc3c(N)ncc(-c4ccc5c(cnn5C)c4)c3n2)C1` [Compound 140, (5-amino-8-(1-methyl-1H-indazol-5-yl)-1,6-naphthyridin-2-yl)(3-methoxyazetidin-1-yl)methanone] it was 0.01 to 0.1 µM.

In the case of `COCCNc1ccc2cncc(-c3ccc(-c4cnn(C)c4)cc3)c2c1` [Compound 105, (2-Methoxy-ethyl)-{4-[4-(1-methyl-1H-pyrazol-4-yl)-phenyl]-isoquinolin-6-yl}-amine], the IC50 was under 0.01 µM.

For the compound `COc1ccc(CNC(=O)c2ccc3cncc(-c4ccc(-c5cnn(C)c5)cc4)c3n2)cc1` [Compound 81, N-(4-methoxybenzyl)-8-(4-(1-methyl-1H-pyrazol-4-yl)phenyl)-1,6-naphthyridine-2-carboxamide], the IC50 lay in the range of 0.01 to 0.1 µM. Take `CNCc1ccc2cncc(-c3ccc4c(c3)CS(=O)(=O)N4C)c2n1` [Compound 53, Methyl-[8-(1-methyl-2,2-dioxo-2,3-dihydro-1H-benzo[c]isothiazol-5-yl)-[1,6]naphthyridin-2-ylmethyl]-amine]: the IC50 lay in the range of 0.01 to 0.1 µM.

For `Cn1cc(-c2ccc(-c3cncc4ccc(C(=O)N5CCC5)cc34)cc2)cn1` [Compound 181, azetidin-1-yl(4-(4-(1-methyl-1H-pyrazol-4-yl)phenyl)isoquinolin-6-yl)methanone], the IC50 is under 0.01 µM. In the case of `Nc1nccc2cc(C(=O)N3CCC[C@H]3c3ccc(Cl)cc3)ccc12` [Compound 137, (S)-(1-aminoisoquinolin-6-yl)(2-(4-chlorophenyl)pyrrolidin-1-yl)methanone], the IC50 lay in the range of 0.01 to 0.1 µM. For `O=C(c1ccc2cncc(-c3ccc4c(c3)CS(=O)(=O)N4)c2n1)N1CCC(F)(F)C1` [Compound 30, (3,3-difluoro-pyrrolidin-1-yl)-[8-(2,2-dioxo-2,3-dihydro-1H-benzo[c]isothiazol-5-yl)-[1,6]naphthyridin-2-yl]-methanone], the 50% inhibitory concentration (IC50) was under 0.01 µM. `Cn1cc(-c2ccc(-c3cncc4ccc(N5CCCCC5=O)cc34)cc2)cn1` [Compound 127, 1-{4-[4-(1-Methyl-1H-pyrazol-4-yl)-phenyl]-isoquinolin-6-yl}-piperidin-2-one]: the IC50 is 0.501 to 1 µM. Turning to `Cn1cc(-c2ccc(-c3cncc4ccc(N5CCC(=O)C5)cc34)cc2)cn1` [Compound 115, 1-{4-[4-(1-Methyl-1H-pyrazol-4-yl)-phenyl]-isoquinolin-6-yl}-pyrrolidin-3-one], the IC50 was in the range of 0.01 to 0.1 µM. Turning to `CC(=O)NCc1ccc2cncc(-c3ccc4c(c3)CS(=O)(=O)N4C)c2n1` [Compound 38, N-[8-(1-Methyl-2,2-dioxo-2,3-dihydro-1H-benzo[c]isothiazol-5-yl)-[1,6]naphthyridin-2-ylmethyl]-acetamide], the IC50 lay within 0.01 to 0.1 µM. Turning to `Cn1cc(-c2ccc(-c3cncc4ccc(NS(=O)(=O)C5CC5)cc34)cc2)cn1` [Compound 162, Cyclopropanesulfonic acid {4-[4-(1-methyl-1H-pyrazol-4-yl)-phenyl]-isoquinolin-6-yl}-amide], the IC50 is under 0.01 µM.

`COC1CN(C(=O)c2ccc3cncc(-c4ccc(-c5cnn(CC(C)(C)O)c5)cc4)c3c2)C1` [Compound 131, (4-(4-(1-(2-hydroxy-2-methylpropyl)-1H-pyrazol-4-yl)phenyl)isoquinolin-6-yl)(3-methoxyazetidin-1-yl)methanone]: the IC50 is 0.01 to 0.1 µM. The value for `COC1CN(C(=O)c2ccc3cncc(-c4ccc5c(c4)CCC(=O)N5C)c3c2)C1` [Compound 155, 6-[6-(3-Methoxy-azetidine-1-carbonyl)-isoquinolin-4-yl]-1-methyl-3,4-dihydro-1H-quinolin-2-one] was 0.01 to 0.1 µM; that for `O=C(c1ccc2cnccc2n1)N1CCC[C@H]1c1ccccc1` [Compound 54, (S)-(1,6-naphthyridin-2-yl)(2-phenylpyrrolidin-1-yl)methanone] was 0.01 to 0.1 µM.

On to `CN(C)C(=O)c1ccc2c(N)ncc(-c3ccc4c(c3)CS(=O)(=O)N4)c2n1` [Compound 59, 5-amino-8-(2,2-dioxido-1,3-dihydrobenzo[c]isothiazol-5-yl)-N,N-dimethyl-1,6-naphthyridine-2-carboxamide], for which the IC50 was 0.101 to 0.5 µM. Turning to `O=C(c1ccc2cnccc2c1)N1CCC[C@H]1c1ccccc1` [Compound 122, (S)-isoquinolin-6-yl(2-phenylpyrrolidin-1-yl)methanone], the IC50 was in the range of 0.01 to 0.1 µM. Consider `CNC(=O)c1ccc2cncc(-c3ccc(-c4cnn(C)c4)cc3F)c2n1` [Compound 17, 8-(2-fluoro-4-(1-methyl-1H-pyrazol-4-yl)phenyl)-N-methyl-1,6-naphthyridine-2-carboxamide], for which the IC50 was under 0.01 µM. Turning to `Cn1cc(-c2ccc(-c3c(Cl)ncc4ccc(C(N)=O)nc34)cc2)cn1` [Compound 66, 7-Chloro-8-(4-(1-methyl-1H-pyrazol-4-yl)phenyl)-1,6-naphthyridine-2-carboxamide], the IC50 fell in the range of 0.101 to 0.5 µM.

These data come from patent publication US20160016951A1 (Merck Patent GmbH, priority 2014, published 2016).
